Measured values: patent US12263248B2, “Compounds and compositions for intracellular delivery of therapeutic agents” (ModernaTX, Inc., priority 2018, dated 2025)

Columns and labels:
[1] = Encapsulation efficiency of RNA (QUANT-IT RIBOGREEN RNA assay); format: physicochemical
Protocol: For nanoparticle compositions including an RNA, a QUANT-IT™ RIBOGREEN® RNA assay (Invitrogen Corporation Carlsbad, CA) can be used to evaluate the encapsulation of an RNA by the nanoparticle composition. The samples are diluted to a concentration of approximately […] in a TE buffer solution (10 mM Tris-HCl, 1 mM EDTA, pH 7.5). 50 μL of the diluted samples are transferred to a polystyrene 96 well plate and either 50 μL of TE buffer or 50 μL of a 2% Triton X-100 solution is added to the wells. The plate is incubated at a temperature of 37° C. for 15 minutes. The RIBOGREEN® reagent is diluted 1:100 in TE buffer, and 100 μL of this solution is added to each well. The fluorescence intensity can be measured using a fluorescence plate reader (Wallac Victor 1420 Multilabel Counter; Perkin Elmer, Waltham, MA) at an excitation wavelength of, for example, about 480 nm and an emission wavelength of, for example, about 520 nm. The fluorescence values of the reagent blank are subtracted from that of each of the samples and the percentage of free RNA is determined by dividing the fluorescence intensity of the intact sample (without addition of Triton X-100) by the fluorescence value of the disrupted sample (caused by the addition of Triton X-100).

[2] = Particle size and polydispersity index of nanoparticle compositions (Zetasizer Nano ZS); format: physicochemical
Protocol: A Zetasizer Nano ZS (Malvern Instruments Ltd, Malvern, Worcestershire, UK) can be used to determine the particle size, the polydispersity index (PDI) and the zeta potential of the nanoparticle compositions in 1×PBS in determining particle size and 15 mM PBS in determining zeta potential.

luciferase (Luc) mRNA [3] = assay: Luc expression in liver, lung, spleen and femur 6 hours after intravenous administration; format: in vivo; conditions: mice, 0.5 mpk; for Total Flux Liver / Total Flux Lung / Total Flux Spleen: intravenous
Protocol: The efficacy of the nanoparticle compositions presented in Table 1A was further evaluated by measuring the expression of modified luciferase in the liver, lung, spleen, and femur upon administration of a given composition. Formulations were administered intravenously to mice (n=3) at a dosage of 0.5 mpk and bioluminescence measured after 6 hours. The standard MC3 formulation and a PBS control were also tested. […] Flux in the liver was lowest for compositions including Compounds 58, 59, 137, and 141. Flux in the spleen was highest for compositions including Compounds 4, 7, 33, 34, 48, 53, 108, 129, 130, and 148, and lowest for compositions including Compounds 9, 59, 124, and 141.
(§1) Whole body and ex vivo organ bioluminescent imaging of mice: CD-1 mice were injected 15 minutes prior to the imaging timepoint intraperitoneally (IP) with 200 μL Xenolight D-luciferin K+ salt, diluted in PBS just prior to use to a concentration of 15 mg/mL. Ex vivo imaging of organs was completed within 25 minutes of luciferin administration. All images were quantified by region of interest for total flux.

luciferase (Luc) mRNA [4] = assay: Luc expression, whole body bioluminescence after intravenous administration to mice; format: in vivo; conditions: for Fold increase in total body Luc Flux relative to MC3 at 6 h: Table 3A; for Total Flux 3 hours / Total Flux 6 hours / Total Flux 24 hours: Luc mRNA
Protocol: In order to monitor how effectively various nanoparticle compositions deliver therapeutic and/or prophylactics to targeted cells, different nanoparticle compositions including a particular therapeutic and/or prophylactic (for example, a modified or naturally occurring RNA such as an mRNA) are prepared and administered to rodent populations. Mice are intravenously, intramuscularly, intraarterially, or intratumorally administered a single dose including a nanoparticle composition with a formulation such as those provided in Example 3. In some instances, mice may be made to inhale doses. Dose sizes may range from 0.001 mg/kg to 10 mg/kg, where 10 mg/kg describes a dose including 10 mg of a therapeutic and/or prophylactic in a nanoparticle composition for each 1 kg of body mass of the mouse. A control composition including PBS may also be employed.
Upon administration of nanoparticle compositions to mice, dose delivery profiles, dose responses, and toxicity of particular formulations and doses thereof can be measured by enzyme-linked immunosorbent assays (ELISA), bioluminescent imaging, or other methods. For nanoparticle compositions including mRNA, time courses of protein expression can also be evaluated. Samples collected from the rodents for evaluation may include blood, sera, and tissue (for example, muscle tissue from the site of an intramuscular injection and internal tissue); sample collection may involve sacrifice of the animals.
The efficacy of the nanoparticle compositions presented in Table 1A was evaluated with a bioluminescence study. Formulations were administered intravenously to mice (n=6) at a dosage of 0.5 mg/kg (mpk) and bioluminescence measured at 3, 6, and 24 hour time points. The standard MC3 formulation and, in some instances, a control (e.g., a PBS control) were evaluated for comparison. […] In general, flux decreased as time progressed to less than 10% of the initial flux.
as §1

[5] = Table 1A, lipid:DSPC:cholesterol:PEG-DMG 50:10:38.5:1.5 mol %
[6] = Table 1B, formulated with hEPO mRNA

SMILES | EE (%) ([1]; Table 1A) | PDI ([2]; Table 1A) | Size (nm) [2, 5] [nm] | EE (%) [1, 6] [%] | PDI [2, 6] | Size (nm) [2, 6] [nm] | Total Flux Liver (luciferase (Luc) mRNA [3]) | Total Flux Lung (luciferase (Luc) mRNA [3]) | Total Flux Spleen (luciferase (Luc) mRNA [3]) | Fold increase in total body Luc Flux relative to MC3 at 6 h (luciferase (Luc) mRNA [4]; i.v. administration) | Total Flux 3 hours (luciferase (Luc) mRNA [4]; mice, i.v., 0.5 mg/kg) | Total Flux 6 hours (luciferase (Luc) mRNA [4]; mice, i.v., 0.5 mg/kg) | Total Flux 24 hours (luciferase (Luc) mRNA [4]; mice, i.v., 0.5 mg/kg) | flux at all timepoints measured (luciferase (Luc) mRNA [4]; mice, i.v., 0.5 mg/kg, 3, 6 and 24 hour, in words) | 6 h Lipid/MC3 Avg. Luc Expression (luciferase (Luc) mRNA [4]; Table 3C, i.v. administration) | Fold increase AUC Lipid/MC3 (luciferase (Luc) mRNA [4]; Table 3C, i.v. administration) | AUC (h * p/s) (luciferase (Luc) mRNA [4]; Table 3C, i.v. administration, Luc) | total flux at 3 hours (luciferase (Luc) mRNA [4]; mice, i.v., 0.5 mg/kg, comparison in words) | Flux in the spleen (luciferase (Luc) mRNA [3]; i.v., in words)
CCCCCCCCC(CCCCCCCC)OC(=O)CCCCCCCN(CCO)CCCC(=O)OCCCC [Compound 51, heptadecan-9-yl 8-((4-butoxy-4-oxobutyl)(2-hydroxyethyl)amino) octanoate] | 89.83 | 0.17 | 148.8 |  |  |  | 2.49E+07 | 3.67E+05 | 2.80E+07 | 0.025 | 1.34E+08 | 2.80E+08 | 6.20E+06 |  |  |  |  |  | 
CCCCCCCCC(CCCCCCCC)OC(=O)CCCCCCCN(CCO)CCCCCCCCC1CC1CCCCCCCC (stereo not shown) [Compound 47, heptadecan-9-yl 8-((2-hydroxyethyl)(8-(2-octylcyclopropyl)octyl)amino)octanoate] | 96.40 | 0.10 | 80.6 |  |  |  | 4.86E+09 | 8.71E+06 | 8.33E+07 |  | 6.55E+10 | 5.38E+10 | 2.09E+09 |  |  |  |  |  | 
CCCCCCCCC(CCCCCCCC)OC(=O)CCCCCCCN(CCO)CCCCCCCC(=O)OC1CCC(CCCCC)CC1 (stereo not shown) [Compound 66, Heptadecan-9-yl 8-((2-hydroxyethyl)(8-oxo-8-((4-pentylcyclohexyl)oxy)octyl)amino)octanoate] | 96.52 | 0.120 | 76.7 |  |  |  | 5.01E+09 | 4.20E+06 | 2.00E+07 | 0.103 | 9.66E+10 | 4.577E+10 | 5.56E+09 |  | 6.28 | 8.20 | 6.76E+11 | highest | 
CCCCCCCCCOC(=O)CCCCCCCN(CCCCCCCC(=O)OC(CCCCCCCC)CCCCCCCC)CCCn1ccc(N)nc1=O [Compound 115, Heptadecan-9-yl 8-((3-(4-amino-2-oxopyrimidin-1(2H)-yl)propyl)(8-(nonyloxy)-8-oxooctyl)amino)octanoate] | 99.7 | 0.11 | 64.5 |  |  |  |  |  |  |  | 2.13E+07 | 2.91E+07 |  |  |  |  |  |  | 
CCCCCCCCCOC(=O)CCCCCCCN(CCCCCCCC(=O)OC(CCCCCCCC)CCCCCCCC)CCCC(=O)NC [Compound 239, Heptadecan-9-yl 8-((4-(methylamino)-4-oxobutyl)(8-(nonyloxy)-8-oxooctyl)amino)octanoate] | 90.42 | 0.12 | 55.8 | 82.6 | 0.14 | 71.3 |  |  |  |  |  |  |  |  |  |  |  |  | 

Second part, led by results:

EE (%) ([1]; Table 1A) | PDI ([2]; Table 1A) | Size (nm) [2, 5] [nm] | EE (%) [1, 6] [%] | PDI [2, 6] | Size (nm) [2, 6] [nm] | SMILES | Total Flux Liver (luciferase (Luc) mRNA [3]) | Total Flux Lung (luciferase (Luc) mRNA [3]) | Total Flux Spleen (luciferase (Luc) mRNA [3]) | Fold increase in total body Luc Flux relative to MC3 at 6 h (luciferase (Luc) mRNA [4]; i.v. administration) | Total Flux 3 hours (luciferase (Luc) mRNA [4]; mice, i.v., 0.5 mg/kg) | Total Flux 6 hours (luciferase (Luc) mRNA [4]; mice, i.v., 0.5 mg/kg) | Total Flux 24 hours (luciferase (Luc) mRNA [4]; mice, i.v., 0.5 mg/kg) | flux at all timepoints measured (luciferase (Luc) mRNA [4]; mice, i.v., 0.5 mg/kg, 3, 6 and 24 hour, in words) | 6 h Lipid/MC3 Avg. Luc Expression (luciferase (Luc) mRNA [4]; Table 3C, i.v. administration) | Fold increase AUC Lipid/MC3 (luciferase (Luc) mRNA [4]; Table 3C, i.v. administration) | AUC (h * p/s) (luciferase (Luc) mRNA [4]; Table 3C, i.v. administration, Luc) | total flux at 3 hours (luciferase (Luc) mRNA [4]; mice, i.v., 0.5 mg/kg, comparison in words) | Flux in the spleen (luciferase (Luc) mRNA [3]; i.v., in words)
95.18 | 0.17 | 112.1 |  |  |  | CCCCCCCCCOC(=O)CCCCCCCN(CCO)CCCCCCCC(=O)OC(CCCCCC)CCCCCC [Compound 56, nonyl 8-((2-hydroxyethyl)(8-oxo-8-(tridecan-7-yloxy)octyl)amino) octanoate] | 1.04E+09 | 4.62E+06 | 1.98E+08 | 0.733 | 1.27E+10 | 8.06E+09 | 2.53E+08 |  |  |  |  |  | 
93.25 | 0.19 | 130.5 |  |  |  | CCCCCCCCC(CCCCCCCC)OC(=O)CCCCCCCN(CCO)CCCC(=O)OCCCCC [Compound 52, heptadecan-9-yl 8-((2-hydroxyethyl)(4-oxo-4-(pentyloxy)butyl)amino) octanoate] | 5.86E+08 | 2.80E+06 | 8.30E+07 |  | 2.91E+09 | 4.63E+09 | 2.55E+07 |  |  |  |  |  | 
−15.1 |  | 53.5 |  |  |  | CCCCCCCCCOC(=O)CCCCCCCN(CCC#N)CCCCCCCC(=O)OC(CCCCCCCC)CCCCCCCC [Compound 21, Heptadecan-9-yl 8-((2-cyanoethyl)(8-(nonyloxy)-8-oxooctyl)amino) octanoate] |  |  |  |  |  |  |  |  |  |  |  |  | 
79.6 | 0.16 | 90.9 |  |  |  | CCCCCCCCCOC(=O)CCCCCCCN(CCCCCCCC(=O)OC(CCCCCCCC)CCCCCCCC)CCC(=O)O [Compound 125, 3-((8-(Heptadecan-9-yloxy)-8-oxooctyl)(8-(nonyloxy)-8-oxooctyl)amino)propanoic acid] |  |  |  |  | 2.44E+05 | 3.16E+05 |  | significantly lower flux |  |  |  |  | 
95.8 | 0.13 | 125.4 |  |  |  | CCCCCCCCC(CCCCCCCC)OC(=O)CCCCCCCN(CCO)CCCC(=O)OCCCCCC [Compound 53, heptadecan-9-yl 8-((4-(hexyloxy)-4-oxobutyl)(2-hydroxyethyl)amino) octanoate] | 2.02E+09 | 2.47E+07 | 8.54E+08 | 2.11 | 1.91E+10 | 2.32E+10 | 1.01E+09 |  |  |  |  |  | highest
